The subject of experiment [1] is JAK1-dependent STAT6 phosphorylation downstream of IL-13 stimulation in BEAS-2B cells. The experiment in a line: JAK1 pathway assay in cell lines: IL-13 p-STAT6 BEAS-2B. It is filed as cell-based. To be noted: BEAS-2B human bronchial epithelial cells, 1 hr compound, IL-13 15 min, MSD readout. How it is done:
JAK1 Pathway Assay in Cell Lines was Carried Out as Follows:
Inhibitor potency (EC50) was determined in cell-based assays designed to measure JAK1 dependent STAT phosphorylation. As noted above, inhibition of IL-4, IL-13, and IL-9 signalling by blocking the Jak/Stat signaling pathway can alleviate asthmatic symptoms in pre-clinical lung inflammation models (Mathew et al., 2001, J Exp Med 193(9): 1087-1096; Kudlacz et. al., 2008, Eur J. Pharmacol 582(1-3): 154-161).
In one assay approach, TF-1 human erythroleukemia cells obtained from the American Type Culture Collection (ATCC; Manassas, Va.) were used to measure JAK1-dependent STAT6 phosphorylation downstream of IL-13 stimulation. Prior to use in the assays, TF-1 cells were starved of GM-CSF overnight in OptiMEM medium (Life Technologies, Grand Island, N.Y.) supplemented with 0.5% charcoal/dextran stripped fetal bovine serum (FBS), 0.1 mM non-essential amino acids (NEAA), and 1 mM sodium pyruvate. The assays were run in 384-well plates in serum-free OptiMEM medium using 300,000 cells per well. In a second assay approach, BEAS-2B human bronchial epithelial cells obtained from ATCC were plated at 100,000 cells per well of a 96-well plate one day prior to the experiment. The BEAS-2B assay was run in complete growth medium (bronchial epithelial basal medium plus bulletkit; Lonza; Basel, Switzerland).
Test compounds were serially diluted 1:2 in DMSO and then diluted 1:50 in medium just before use. Diluted compounds were added to the cells, for a final DMSO concentration of 0.2%, and incubated for 30 mi (for the TF-1 assay) or 1 hr (for the BEAS-2B assay) at 37 QC. Then, cells were stimulated with human recombinant cytokine at their respective EC90 concentrations, as previously determined for each individual lot. Cells were stimulated with IL-13 (R&D Systems, Minneapolis, Minn.) for 15 min at 37 °C. The TF-1 cell reactions were stopped by the direct addition of 10× lysis buffer (Cell Signaling Technologies, Danvers, Mass.), whereas the BEAS-2B cell incubations were halted by the removal of medium and addition of 1× lysis buffer. The resultant samples were frozen in the plates at −80 °C. Compound mediated inhibition of STAT6 phosphorylation was measured in the cell lysates using MesoScale Discovery (MSD) technology (Gaithersburg, Md.). EC50 values were determined as the concentration of compound required for 50% inhibition of STAT phosphorylation relative to that measured for the DMSO control.

Experiment [2] has as its target T1, isolated recombinant JAK1 kinase domain (Homo sapiens, UniProt P23458).
T1 construct: isolated recombinant JAK1 and JAK2 kinase domain
The experiment in a line: JAK enzyme assay, JAK1 kinase domain (Caliper LabChip). The class given is biochemical. To be noted: 1.5 nM JAK1, ATP 25 μM, Morrison tight binding model. As for the experimental part: (§1) JAK Enzyme Assays were Carried Out as Follows:
(§2) The activity of the isolated recombinant JAK1 and JAK2 kinase domain was measured by monitoring phosphorylation of a peptide derived from JAK3 (Val-Ala-Leu-Val-Asp-Gly-Tyr-Phe-Arg-Leu-Thr-Thr, fluorescently labeled on the N-terminus with 5-carboxyfluorescein) using the Caliper LabChip® technology (Caliper Life Sciences, Hopkinton, Mass.). […] Reactions were incubated at 22 °C in 384-well polypropylene microtiter plates for 30 minutes and then stopped by addition of 25 μL of an EDTA containing solution (100 mM HEPES buffer (pH 7.2), 0.015% Brij-35, 150 mM EDTA), resulting in a final EDTA concentration of 50 mM. After termination of the kinase reaction, the proportion of phosphorylated product was determined as a fraction of total peptide substrate using the Caliper LabChip® 3000 according to the manufacturer's specifications. Ki values were then determined using the Morrison tight binding model (Morrison, J. F., Biochim. Biophys. Acta. 185:269-296 (1969); William, J. W. and Morrison, J. F., Meth. Enzymol., 63:437-467 (1979)) modified for ATP-competitive inhibition [Ki=Ki,app/(1+[ATP]/Km,app)].

Experiment [3] addresses T2, isolated recombinant JAK2 kinase domain (Homo sapiens, UniProt O60674).
T2 construct: isolated recombinant JAK1 and JAK2 kinase domain
Briefly: JAK enzyme assay, JAK2 kinase domain (Caliper LabChip). The class given is biochemical. To be noted: 0.2 nM JAK2, ATP 25 μM, Morrison tight binding model. How it is done: as §1, §2

As usually defined, the EC50 is the concentration at which the effect is half-maximal. Lower therefore signals greater potency. As a reminder, the Ki is the equilibrium dissociation constant of an inhibitor or competing ligand from its target.

T1 sequence (P23458 875-1153 limits assumed): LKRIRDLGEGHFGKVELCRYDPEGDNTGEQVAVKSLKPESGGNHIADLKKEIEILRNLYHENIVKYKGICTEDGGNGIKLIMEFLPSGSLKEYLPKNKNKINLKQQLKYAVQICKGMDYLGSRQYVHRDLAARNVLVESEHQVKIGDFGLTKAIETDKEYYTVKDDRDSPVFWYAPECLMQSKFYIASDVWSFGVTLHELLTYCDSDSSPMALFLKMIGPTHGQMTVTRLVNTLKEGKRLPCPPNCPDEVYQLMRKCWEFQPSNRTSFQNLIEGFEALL
T2 sequence (O60674 849-1124 limits assumed): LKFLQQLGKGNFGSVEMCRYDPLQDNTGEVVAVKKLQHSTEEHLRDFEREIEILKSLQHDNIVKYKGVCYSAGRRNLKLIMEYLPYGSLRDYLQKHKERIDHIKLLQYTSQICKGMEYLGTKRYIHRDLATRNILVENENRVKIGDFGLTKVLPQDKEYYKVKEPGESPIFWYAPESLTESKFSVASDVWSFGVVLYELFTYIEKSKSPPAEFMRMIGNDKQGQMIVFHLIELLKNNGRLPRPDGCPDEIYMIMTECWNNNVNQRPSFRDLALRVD

In experiment [1], `N#CCC1(n2cc(C(F)(F)F)cn2)CN(c2cccn3nc(Nc4ccc5c(c4)CCN(C4COC4)C5)nc23)C1` [Example 121, 2-[1-[2-[[2-(oxetan-3-yl)-3,4-dihydro-1H-isoquinolin-6-yl]amino]-[1,2,4]triazolo[1,5-a]pyridin-8-yl]-3-[4-(trifluoromethyl)pyrazol-1-yl]azetidin-3-yl]acetonitrile] came in with an EC50 of 31 nM. Further, the Ki is 0.5 nM in experiment [2] and 4.4 nM in experiment [3].

Compound `Cc1ccccc1-c1cnn(C2(CC#N)CN(c3cccn4nc(Nc5cnn(CC(=O)N6CCC(NCC7(C#N)CC7)CC6)c5)nc34)C2)c1` [Example 118, 1-[[[1-[2-[4-[[8-[3-(cyanomethyl)-3-[4-(o-tolyl)pyrazol-1-yl]azetidin-1-yl]-[1,2,4]triazolo[1,5-a]pyridin-2-yl]amino]pyrazol-1-yl]acetyl]-4-piperidyl]amino]methyl]cycl opropanecarbonitrile] registered an EC50 in experiment [1] of 99 nM. In addition, the Ki was found to be 1.1 nM in experiment [2] and 7.3 nM in experiment [3].

Compound `CN1CCN(C(=O)Cn2cc(Nc3nc4c(N5CC(CC#N)(n6cc(C#N)cn6)C5)cccn4n3)cn2)CC1` [Example 87, 1-[3-(cyanomethyl)-1-[2-[[1-[2-(4-methylpiperazin-1-yl)-2-oxo-ethyl]pyrazol-4-yl]amino]-[1,2,4]triazolo[1,5-a]pyridin-8-yl]azetidin-3-yl]pyrazole-4-carbonitrile] gave an EC50 in experiment [1] of 17 nM. Moreover, the inhibition constant (Ki) turned out to be 0.2 nM in experiment [2] and 0.7 nM in experiment [3].

Take `CC(=O)N1CCN(CC2CCN(C(=O)Cn3cc(Nc4nc5c(N6CC(CC#N)(c7cccc(Cl)c7)C6)cccn5n4)cn3)CC2)CC1` [Example 95, 2-[1-[2-[[1-[2-[4-[(4-acetylpiperazin-1-yl)methyl]-1-piperidyl]-2-oxo-ethyl]pyrazol-4-yl]amino]-[1,2,4]triazolo[1,5-a]pyridin-8-yl]-3-(3-chlorophenyl)azetidin-3-yl]acetonitrile]: a half-maximal effect in experiment [1] (EC50) was put at 41 nM. Also, the figures for the Ki in experiment [2] and in experiment [3] were 0.4 nM and 1.3 nM, respectively.

`COc1cnn(C2(CC#N)CN(c3cccn4nc(Nc5cnn(CC(=O)N6CCN(C)CC6)c5)nc34)C2)c1` [Example 28, 2-[3-(4-methoxypyrazol-1-yl)-1-[2-[[1-[2-(4-methylpiperazin-1-yl)-2-oxo-ethyl]pyrazol-4-yl]amino]-[1,2,4]triazolo[1,5-a]pyridin-8-yl]azetidin-3-yl]acetonitrile] had a concentration for a half-maximal effect (EC50) in experiment [1] of 54 nM. Further, the values for the Ki in experiment [2] and in experiment [3] were 0.4 nM and 1.4 nM, respectively.

In experiment [1], `CCc1cnn(C2(CC#N)CN(c3cccn4nc(Nc5cnn(CC(=O)N6CCC(NCC(C)(F)F)CC6)c5)nc34)C2)c1` [Example 30, 2-[1-[2-[[1-[2-[4-(2,2-difluoropropylamino)-1-piperidyl]-2-oxo-ethyl]pyrazol-4-yl]amino]-[1,2,4]triazolo[1,5-a]pyridin-8-yl]-3-(4-ethylpyrazol-1-yl)azetidin-3-yl]acetonitrile] gave an EC50 of 104 nM. Besides, the Ki is 0.7 nM in experiment [2] and 2.7 nM in experiment [3].

For `N#CCC1(c2cccc(Cl)c2)CN(c2cccn3nc(Nc4cnn(CC(=O)N5CCC(N6CCOCC6)CC5)c4)nc23)C1` [Example 72, 2-[3-(3-chlorophenyl)-1-[2-[[1-[2-(4-morpholino-1-piperidyl)-2-oxo-ethyl]pyrazol-4-yl]amino]-[1,2,4]triazolo[1,5-a]pyridin-8-yl]azetidin-3-yl]acetonitrile], in experiment [1], a half-maximal response (EC50) required 24 nM. For the same compound, the Ki in experiment [2] and in experiment [3] was 0.6 nM each time.

`N#CCC1(n2cc(C(F)(F)F)cn2)CN(c2cccn3nc(Nc4cnn(CC(=O)N5CCC(N6CCOCC6)CC5)c4)nc23)C1` [Example 96, 2-[1-[2-[[1-[2-(4-morpholino-1-piperidyl)-2-oxo-ethyl]pyrazol-4-yl]amino]-[1,2,4]triazolo[1,5-a]pyridin-8-yl]-3-[4-(trifluoromethyl)pyrazol-1-yl]azetidin-3-yl]acetonitrile] returned an EC50 in experiment [1] of 28 nM. The Ki was determined as 0.3 nM in experiment [2] and 0.8 nM in experiment [3].

`CCc1cnn(C2(CC#N)CN(c3cccn4nc(Nc5ccc(C(=O)N6CCN(C)CC6)c(OC)c5)nc34)C2)c1` [Example 106, 2-[3-(4-ethylpyrazol-1-yl)-1-[2-[3-methoxy-4-(4-methylpiperazine-1-carbonyl)anilino]-[1,2,4]triazolo[1,5-a]pyridin-8-yl]azetidin-3-yl]acetonitrile] yielded an EC50 in experiment [1] of 40 nM. Moreover, the Ki amounted to 0.5 nM in experiment [2] and 1.3 nM in experiment [3].

For the compound `CN1CCN(C(=O)Cn2cc(Nc3nc4c(N5CC(CC#N)(c6cccc(Cl)c6)C5)cccn4n3)cn2)CC1` [Example 35, 2-[3-(3-chlorophenyl)-1-[2-[[1-[2-(4-methylpiperazin-1-yl)-2-oxo-ethyl]pyrazol-4-yl]amino]-[1,2,4]triazolo[1,5-a]pyridin-8-yl]azetidin-3-yl]acetonitrile], the EC50 in experiment [1] amounted to 39 nM. In addition, the inhibitory constant (Ki) in experiment [2] stood at 0.8 nM; in experiment [3], 2.8 nM.

In turn, `CCc1cnn(C2(CC#N)CN(c3cccn4nc(Nc5cnn(CC(=O)N6CCC(NCC(C)(C)C#N)CC6)c5)nc34)C2)c1` [Example 33, 3-[[1-[2-[4-[[8-[3-(cyanomethyl)-3-(4-ethylpyrazol-1-yl)azetidin-1-yl]-[1,2,4]triazolo[1,5-a]pyridin-2-yl]amino]pyrazol-1-yl]acetyl]-4-piperidyl]amino]-2,2-dimethyl-propanenitrile] yielded an EC50 in experiment [1] of 18 nM. The results for the Ki in experiment [2] and in experiment [3] were 0.3 nM and 0.2 nM, respectively.

The compound `CN1CCN(C(=O)Cn2cc(Nc3nc4c(N5CC(CC#N)(c6ccc(F)c(Cl)c6)C5)cccn4n3)cn2)CC1` [Example 83, 2-[3-(3-chloro-4-fluoro-phenyl)-1-[2-[[1-[2-(4-methylpiperazin-1-yl)-2-oxo-ethyl]pyrazol-4-yl]amino]-[1,2,4]triazolo[1,5-a]pyridin-8-yl]azetidin-3-yl]acetonitrile] displayed an EC50 in experiment [1] of 14 nM. Besides, the Ki in experiment [2] and in experiment [3] was 0.2 nM each time.

As for `CN1CCN(C(=O)Cn2cc(Nc3nc4c(N5CC(CC#N)(n6cc(C7CCCCC7)cn6)C5)cccn4n3)cn2)CC1` [Example 55], the response in experiment [1] was half-maximal at 137 nM (EC50). Further, the Ki in experiment [2] was 1 nM; in experiment [3], 5.7 nM.

`Cc1cc(C2(CC#N)CN(c3cccn4nc(Nc5cnn(CC(=O)N6CCN(C)CC6)c5)nc34)C2)ccc1Cl` [Example 27, 2-[3-(4-chloro-3-methyl-phenyl)-1-[2-[[1-[2-(4-methylpiperazin-1-yl)-2-oxo-ethyl]pyrazol-4-yl]amino]-[1,2,4]triazolo[1,5-a]pyridin-8-yl]azetidin-3-yl]acetonitrile] displayed an EC50 in experiment [1] of 51 nM. The Ki in experiment [2] came to 0.5 nM; in experiment [3], 1.8 nM.

As for `CN1CCN(C(=O)Cn2cc(Nc3nc4c(N5CC(CC#N)(n6cc(C7CC7)cn6)C5)cccn4n3)cn2)CC1` [Example 43, 2-[3-(4-cyclopropylpyrazol-1-yl)-1-[2-[[1-[2-(4-methylpiperazin-1-yl)-2-oxo-ethyl]pyrazol-4-yl]amino]-[1,2,4]triazolo[1,5-a]pyridin-8-yl]azetidin-3-yl]acetonitrile], it took 48 nM to reach a half-maximal effect in experiment [1] (EC50). Further, the Ki in experiment [2] turned out to be 0.6 nM; in experiment [3], 4 nM.
